Among the test systems are SK-MEL-28 melanoma; MCF7 breast; HOP-62 NSCLC; HT29 colon; UO-31 renal; OVCAR-3 ovarian; 786-0 renal; M14 melanoma.
Common to all, as to test: NCI-60 cell line screen, 48 h

Structures are written as SMILES.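 1) Cells in 96-well plates. 2) Compound, 48 h, 5 concentrations. 3) Linear interpolation between surrounding doses. 4) Unreached endpoint = highest concentration. Abbreviation: GI50, concentration required for 50% inhibition of growth. TGI: concentration producing complete growth inhibition.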 A value given as a limit tells only on which side of the number the result lay.

For the molecule `COc1cc(-n2cc(-c3ccc(F)cc3)[nH]c2=O)cc(OC)c1OC`, the GI50 in the assay with SK-MEL-28 melanoma, with MCF7 breast, in the assay with HOP-62 NSCLC, in the assay on HT29 colon, with UO-31 renal and in the assay with OVCAR-3 ovarian was greater than 100 µM throughout. The GI50 with 786-0 renal is greater than 100 µM. The TGI in the assay on SK-MEL-28 melanoma, with MCF7 breast, in the assay with HOP-62 NSCLC, in the assay with HT29 colon, in the assay on UO-31 renal and in the assay on OVCAR-3 ovarian was greater than 100 µM each time. The molecule further displayed a TGI in the assay on 786-0 renal greater than 100 µM.
Take `Cn1cc(-c2csc(-c3c[nH]c4ccc(F)cc34)n2)c2cnccc21`: the GI50 with SK-MEL-28 melanoma was 1.86 µM; in the assay on HOP-62 NSCLC it was 1.54 µM; in the assay on HT29 colon it was 1.69 µM; in the assay with UO-31 renal, 1.42 µM; in the assay with OVCAR-3 ovarian, 1.83 µM; with M14 melanoma, 1.74 µM. Further, in the assay on 786-0 renal, the GI50 was 1.85 µM. Moreover, the TGI with SK-MEL-28 melanoma was 3.29 µM; in the assay on HOP-62 NSCLC it was 2.98 µM; in the assay on HT29 colon it was 3.29 µM; in the assay with UO-31 renal it was 2.73 µM; with OVCAR-3 ovarian, 3.32 µM; with M14 melanoma, 3.27 µM. In addition, the TGI in the assay on 786-0 renal came to 3.47 µM.
In the case of `COc1cccc2c1C(=O)c1c(O)c3c(c(O)c1C2=O)C[C@](O)(C(=O)CO)C[C@H]3O[C@@H]1C[C@@H](NC(=O)CCCCCN(C)C2(c3ccc(F)cc3)CC3CCC2C3)[C@H](O)[C@@H](C)O1` (stereo not given in full), the GI50 in the assay on SK-MEL-28 melanoma is 7.25 µM; with MCF7 breast it was 0.966 µM; in the assay with HOP-62 NSCLC, 2.03 µM; in the assay on HT29 colon, 0.676 µM; in the assay with UO-31 renal, 6.1 µM; in the assay on OVCAR-3 ovarian, 1.41 µM. Also, the figures for the GI50 in the assay with M14 melanoma and in the assay on 786-0 renal were 3.48 µM and 0.82 µM, respectively. For the same molecule, the TGI was found to be 15.7 µM in the assay on SK-MEL-28 melanoma; 2.7 µM in the assay with MCF7 breast; 10 µM in the assay with HOP-62 NSCLC; 1.5 µM with HT29 colon; 12.5 µM with UO-31 renal; 4.27 µM in the assay on OVCAR-3 ovarian. The TGI with M14 melanoma came out at 14.3 µM; with 786-0 renal it was 1.61 µM.
As for `Nc1c(C(=O)Nc2ccncc2)sc2nc3c(cc12)CCCCCCCC3`, the GI50 in the assay with SK-MEL-28 melanoma was 0.916 µM; with MCF7 breast, 0.886 µM; in the assay with HT29 colon, 0.969 µM; with UO-31 renal it was 0.772 µM; in the assay with OVCAR-3 ovarian, 0.946 µM; in the assay with M14 melanoma it was 0.93 µM. Also, the GI50 in the assay on 786-0 renal was 0.93 µM. Also, the TGI was found to be 1.65 µM in the assay on SK-MEL-28 melanoma; 1.75 µM in the assay on MCF7 breast; 1.79 µM in the assay with HT29 colon; 1.49 µM in the assay with UO-31 renal; 1.68 µM in the assay on OVCAR-3 ovarian; 1.75 µM in the assay with M14 melanoma. For the same molecule, in the assay with 786-0 renal, the TGI worked out at 1.66 µM.
On to `COc1ccc(Nc2nnc(-c3cc(O)ccc3O)s2)cc1`, for which the GI50 with SK-MEL-28 melanoma was 27.1 µM; in the assay on MCF7 breast it was 11.4 µM; in the assay with HT29 colon, greater than 50 µM; in the assay with UO-31 renal, 47.3 µM; in the assay on OVCAR-3 ovarian, greater than 50 µM; in the assay on M14 melanoma, greater than 50 µM. Also, the GI50 with 786-0 renal was greater than 50 µM. Besides, the TGI is greater than 50 µM in the assay on SK-MEL-28 melanoma; 35.4 µM in the assay on MCF7 breast; greater than 50 µM in the assay on HT29 colon; greater than 50 µM with UO-31 renal; greater than 50 µM in the assay on OVCAR-3 ovarian; greater than 50 µM in the assay with M14 melanoma. In addition, the TGI in the assay with 786-0 renal is greater than 50 µM.
Regarding `O=C1/C(=C/c2cccc(Cl)c2Cl)N=C(c2ccccc2)N1C1CC1`, the GI50 in the assay on MCF7 breast was 7.98 µM; with HOP-62 NSCLC, 8.37 µM; with HT29 colon it was 18.2 µM; with UO-31 renal, 28.5 µM; with OVCAR-3 ovarian it was 22.1 µM; with 786-0 renal it was 7.29 µM. Moreover, the TGI in the assay with MCF7 breast is 19.2 µM; with HOP-62 NSCLC, 16.5 µM; with HT29 colon, greater than 50 µM; with UO-31 renal it was greater than 50 µM; with OVCAR-3 ovarian it was greater than 50 µM; with 786-0 renal, 14.4 µM.
For `CN(C)CC[PH+](c1ccccc1)c1ccccc1.CN(C)CC[PH+](c1ccccc1)c1ccccc1.[Cl-].[Pd+2]`, the GI50 in the assay with SK-MEL-28 melanoma, in the assay on MCF7 breast, in the assay on HT29 colon, with UO-31 renal, with OVCAR-3 ovarian and in the assay on M14 melanoma was greater than 100 µM in each case. In addition, the GI50 in the assay with 786-0 renal is greater than 100 µM. Also, the TGI with SK-MEL-28 melanoma, in the assay with MCF7 breast, in the assay with HT29 colon, in the assay on UO-31 renal, in the assay with OVCAR-3 ovarian and with M14 melanoma was greater than 100 µM throughout. The TGI in the assay on 786-0 renal is greater than 100 µM.
As for `COc1ccc2c(c1)C(=O)c1c-2c(N2CCN(C(=O)CNCCNCCO)CC2)nc2ccccc12`, the GI50 is 2.02 µM with SK-MEL-28 melanoma; 1.75 µM in the assay on MCF7 breast; 1.61 µM in the assay with HT29 colon; 1.89 µM in the assay with UO-31 renal; 11.7 µM in the assay on OVCAR-3 ovarian; 1.82 µM in the assay on M14 melanoma. Further, the GI50 with 786-0 renal is 1.77 µM. Also, the TGI was 3.54 µM in the assay on SK-MEL-28 melanoma; 3.5 µM in the assay with MCF7 breast; 3.05 µM in the assay on HT29 colon; 4.54 µM with UO-31 renal; 31.2 µM with OVCAR-3 ovarian; 3.33 µM with M14 melanoma. This molecule yielded a TGI in the assay with 786-0 renal of 3.34 µM.
Turning to `COc1cc2c3c(n(C)c(=O)c2cc1OC)-c1cc2c(cc1/C3=C\CN)OCO2`, the GI50 is 7.38 µM with SK-MEL-28 melanoma; 0.236 µM in the assay on MCF7 breast; 0.189 µM in the assay with HOP-62 NSCLC; 0.192 µM in the assay with HT29 colon; 0.621 µM in the assay on UO-31 renal; 1.58 µM with OVCAR-3 ovarian. In addition, the GI50 with 786-0 renal was 0.314 µM. Besides, the TGI in the assay with SK-MEL-28 melanoma is greater than 48.5 µM; in the assay with MCF7 breast, greater than 31.6 µM; in the assay with HOP-62 NSCLC, 17 µM; in the assay on HT29 colon, 24.8 µM; in the assay with UO-31 renal it was greater than 41.1 µM; with OVCAR-3 ovarian, 14.8 µM. The same molecule showed a TGI with 786-0 renal of 17.3 µM.
`[Cl][Hg][c]1cc[c]([Hg][Cl])o1`: the GI50 is 5.6 µM with SK-MEL-28 melanoma; 0.529 µM in the assay with MCF7 breast; 13.5 µM in the assay on HOP-62 NSCLC; 2.99 µM in the assay with HT29 colon; 1.98 µM in the assay on UO-31 renal; 2.53 µM with M14 melanoma. Moreover, the GI50 with 786-0 renal is 4.5 µM. The TGI in the assay on SK-MEL-28 melanoma came out at 19.9 µM; with MCF7 breast it was 8.84 µM; in the assay with HOP-62 NSCLC it was 28.4 µM; in the assay with HT29 colon it was 9.88 µM; in the assay with UO-31 renal it was 3.96 µM; with M14 melanoma it was 12 µM. The molecule also came in with a TGI in the assay with 786-0 renal of 15.1 µM.

The values are drawn from PubChem BioAssay (NCI).
